Reference: US10407428B2, “Spiro-isoquinoline-1,4′-piperidine compounds having multimodal activity against pain” (ESTEVE PHARMACEUTICALS, S.A., priority 2014, dated 2019)

Tested on: human σ1 receptor and human μ-opioid receptor
Assay: Human σ1 receptor radioligand assay and human μ-opioid receptor radioligand assay (μ and σ1 dual binding)
Design: key to μ and σ1 dual binding: +: Both Ki-μ and Ki-σ1>=500 nM; ++: One Ki<500 nM while the other Ki is >=500 nM; +++: Both Ki-μ and Ki-σ1<500 nM; ++++: Both Ki-μ and Ki-σ1<100 nM
Settings: not given

**Q.** With `COCCN(C(=O)CN1CCC2(CC1)c1ccccc1CCN2C)C(C)C` [Example 108, N-isopropyl-N-(2-methoxyethyl)-2-(2-methyl-3,4-dihydro-2H-spiro[isoquinoline-1,4′-piperidine]-1′-yl)acetamide] as the molecule, how does the “μ and σ1 dual binding” value read?
**A.** The value was “++”.

**Q.** For `CCC(CC)N(CC)C(=O)CN1CCC2(CC1)c1ccccc1CCN2C` [Example 109, N-ethyl-2-(2-methyl-3,4-dihydro-2H-spiro[isoquinoline-1,4′-piperidine]-1′-yl)-N-(pentan-3-yl)acetamide], which “μ and σ1 dual binding” value is on record?
**A.** Its value is “++”.

**Q.** Which Ki does the source give for `CCC(CC)N(C)C(=O)CN1CCC2(CC1)c1ccccc1CCN2C` [Example 111, N-methyl-2-(2-methyl-3,4-dihydro-2H-spiro[isoquinoline-1,4′-piperidine]-1′-yl)-N-(pentan-3-yl)acetamide] here?
**A.** The Ki was < 500 nM.

**Q.** With `CN(CC1CC1)C(=O)CN1CCC2(CC1)c1ccccc1CCN2C` [Example 112, N-(cyclopropylmethyl)-N-methyl-2-(2-methyl-3,4-dihydro-2H-spiro[isoquinoline-1,4′-piperidine]-1′-yl)acetamide] as the molecule, how does the Ki read?
**A.** The Ki was < 500 nM.

**Q.** `CN1CCc2ccccc2C12CCN(CC(O)c1ccncc1F)CC2` (stereo not drawn) [Example 113, 1-(3-fluoropyridin-4-yl)-2-(2-methyl-3,4-dihydro-2H-spiro[isoquinoline-1,4′-piperidine]-1′-yl)ethanol] was tested. Which Ki did it give?
**A.** Its Ki is < 500 nM.

**Q.** With `CC1CCN(C(=O)CN2CCC3(CC2)c2ccccc2CCN3C)CC1` [Example 114, 2-(2-Methyl-3,4-dihydro-2H-spiro[isoquinoline-1,4′-piperidine]-1′-yl)-1-(4-methylpiperidin-1-yl)ethanone] as the molecule, how does the Ki read?
**A.** Its Ki is < 500 nM.

**Q.** `CN(Cc1ccccn1)C(=O)CN1CCC2(CC1)c1ccccc1CCN2C` [Example 116, N-methyl-2-(2-methyl-3,4-dihydro-2H-spiro[isoquinoline-1,4′-piperidine]-1′-yl)-N-(pyridin-2-ylmethyl)acetamide] was tested. Which “μ and σ1 dual binding” value did it give?
**A.** The value was “++”.

**Q.** With `CN1CCc2ccccc2C12CCN(CCc1cccc(N)c1)CC2` [Example 117, 3-[2-(2-Methyl-3,4-dihydro-2H-spiro[isoquinoline-1,4′-piperidin]-1′-yl)-ethyl]-phenylamine] as the molecule, how does the Ki read?
**A.** Its Ki is < 100 nM.

**Q.** With `CN1CCc2ccccc2C12CCN(CCc1cccc(NS(C)(=O)=O)c1)CC2` [Example 118, N-(3-(2-(2-Methyl-3,4-dihydro-2H-spiro[isoquinoline-1,4′-piperidin]-1′-yl)ethyl)phenyl)methanesulfonamide] as the molecule, how does the Ki read?
**A.** The Ki was < 100 nM.

**Q.** Which Ki does the source give for `CC(=O)Nc1cccc(CCN2CCC3(CC2)c2ccccc2CCN3C)c1` [Example 119, N-{3-[2-(2-Methyl-3,4-dihydro-2H-spiro[isoquinoline-1,4′-piperidin]-1′-yl)-ethyl]-phenyl}-acetamide] here?
**A.** Its Ki is < 500 nM.

**Q.** Which Ki does the source give for `CN1CCc2ccccc2C12CCN(CC(O)c1ccccc1)CC2` (stereo not drawn) [Example 120, 2-(2-Methyl-3,4-dihydro-2H-spiro[isoquinoline-1,4′-piperidin]-1′-yl)-1-phenyl-ethanol] here?
**A.** The Ki was < 500 nM.

**Q.** For `CN1CCc2ccccc2C12CCN(CCc1ccncc1)CC2` [Example 121, 2-Methyl-1′-(2-(pyridin-4-yl)ethyl)-3,4-dihydro-2H-spiro[isoquinoline-1,4′-piperidine]], which Ki is on record?
**A.** Its Ki is < 500 nM.

**Q.** With `COCCN1CCc2ccccc2C12CCN(CCc1ccccc1)CC2` [Example 122, 2-(2-Methoxyethyl)-1′-phenethyl-3,4-dihydro-2H-spiro[isoquinoline-1,4′-piperidine]] as the molecule, how does the Ki read?
**A.** Its Ki is < 500 nM.

**Q.** With `OCCN1CCc2ccccc2C12CCN(CCc1ccccc1)CC2` [Example 123, 2-(1′-Phenethyl-3,4-dihydro-2H-spiro[isoquinoline-1,4′-piperidin]-2-yl)ethanol] as the molecule, how does the Ki read?
**A.** The Ki was < 100 nM.

**Q.** `OCCN1CCc2ccccc2C12CCN(CCc1cccnc1)CC2` [Example 125, 2-[1′-(2-Pyridin-3-yl-ethyl)-3,4-dihydro-spiro[isoquinoline-1,4′-piperidin]-2-yl]-ethanol] was tested. Which Ki did it give?
**A.** Its Ki is < 500 nM.

**Q.** `O=C(CN1CCC2(CC1)c1ccccc1CCN2CCO)N1CCCCC1` [Example 126, 2-(2-(2-Hydroxyethyl)-3,4-dihydro-2H-spiro[isoquinoline-1,4′-piperidine]-1′-yl)-1-(piperidin-1-yl)ethanone] was tested. Which “μ and σ1 dual binding” value did it give?
**A.** Its value is “++”.

**Q.** With `OCCN1CCc2ccccc2C12CCN(CCc1cncc(F)c1)CC2` [Example 127, 2-(1′-(2-(5-fluoropyridin-3-yl)ethyl)-3,4-dihydro-2H-spiro[isoquinoline-1,4′-piperidin]-2-yl)etanol] as the molecule, how does the Ki read?
**A.** Its Ki is < 500 nM.

**Q.** For `OCCN1CCc2ccccc2C12CCN(CCc1cncc(C(F)(F)F)c1)CC2` [Example 128, 2-(1′-(2-(5-(trifluoromethyl)pyridin-3-yl)ethyl)-3,4-dihydro-2H-spiro[isoquinoline-1,4′-piperidine]-2-yl)ethanol], which Ki is on record?
**A.** Its Ki is < 500 nM.

**Q.** `OCCN1CCc2ccccc2C12CCN(CCc1ccncc1)CC2` [Example 129, 2-(1′-(2-(pyridin-4-yl)ethyl)-3,4-dihydro-2H-spiro[isoquinoline-1,4′-piperidine]-2-yl)ethanol] was tested. Which “μ and σ1 dual binding” value did it give?
**A.** The value was “++”.

**Q.** Which Ki does the source give for `OCCN1CCc2ccccc2C12CCN(CCc1ccncc1F)CC2` [Example 130, 2-(1′-(2-(3-Fluoropyridin-4-yl)ethyl)-3,4-dihydro-2H-spiro[isoquinoline-1,4′-piperidine]-2-yl)ethanol] here?
**A.** Its Ki is < 500 nM.

**Q.** For `CN1CCc2cc(O)ccc2C12CCN(CCc1ccccc1)CC2` [Example 131, 2-Methyl-1′-phenethyl-3,4-dihydro-2H-spiro[isoquinoline-1,4′-piperidin]-6-ol], which Ki is on record?
**A.** The Ki was < 100 nM.

**Q.** With `FC(F)(F)CN1CCc2ccccc2C12CCN(CCc1ccccc1)CC2` [Example 133, 1′-Phenethyl-2-(2,2,2-trifluoroethyl)-3,4-dihydro-2H-spiro[isoquinoline-1,4′-piperidine]] as the molecule, how does the Ki read?
**A.** The Ki was < 100 nM.

**Q.** `O=C(CN1CCC2(CC1)c1ccccc1CCN2CC(F)(F)F)N1CCOCC1` [Example 134, 1-Morpholino-2-(2-(2,2,2-trifluoroethyl)-3,4-dihydro-2H-spiro[isoquinoline-1,4′-piperidine]-1′-yl)ethanone] was tested. Which “μ and σ1 dual binding” value did it give?
**A.** Its value is “++”.

**Q.** With `O=C(CN1CCC2(CC1)c1ccccc1CCN2CC(F)(F)F)N1CCCCC1` [Example 135, 1-(piperidin-1-yl)-2-(2-(2,2,2-trifluoroethyl)-3,4-dihydro-2H-spiro[isoquinoline-1,4′-piperidine]-1′-yl)ethanone] as the molecule, how does the “μ and σ1 dual binding” value read?
**A.** Its value is “++”.

**Q.** `FC(F)(F)CN1CCc2ccccc2C12CCN(CCc1ccncc1)CC2` [Example 136, 1′-(2-(pyridin-4-yl)ethyl)-2-(2,2,2-trifluoroethyl)-3,4-dihydro-2H-spiro[isoquinoline-1,4′-piperidine]] was tested. Which Ki did it give?
**A.** The Ki was < 500 nM.

**Q.** Which Ki does the source give for `FC(F)(F)CN1CCc2ccccc2C12CCN(CCc1cccnc1)CC2` [Example 137, 1′-(2-(pyridin-3-yl)ethyl)-2-(2,2,2-trifluoroethyl)-3,4-dihydro-2H-spiro[isoquinoline-1,4′-piperidine]] here?
**A.** Its Ki is < 500 nM.

**Q.** With `CN1Cc2ccccc2C12CCN(CCc1ccccc1)CC2` [Example 140, 2-Methyl-1′-phenethylspiro[isoindoline-1,4′-piperidine]] as the molecule, how does the Ki read?
**A.** Its Ki is < 500 nM.

**Q.** `CN1Cc2ccccc2C12CCN(CC1CCOCC1)CC2` [Example 141, 2-Methyl-1′-((tetrahydro-2H-pyran-4-yl)methyl)spiro[isoindoline-1,4′-piperidine]] was tested. Which “μ and σ1 dual binding” value did it give?
**A.** Its value is “++”.

**Q.** For `CN1CCc2ccccc2C12CCN(C[C@H](O)c1ccncc1F)CC2` [Example 142, (R)-1-(3-fluoropyridin-4-yl)-2-(2-methyl-3,4-dihydro-2H-spiro[isoquinoline-1,4′-piperidine]-1′-yl)ethanol], which Ki is on record?
**A.** Its Ki is < 500 nM.

**Q.** How did the Ki turn out when `CN1CCc2ccccc2C12CCN(C[C@@H](O)c1ccncc1F)CC2` [Example 143, (S)-1-(3-fluoropyridin-4-yl)-2-(2-methyl-3,4-dihydro-2H-spiro[isoquinoline-1,4′-piperidine]-1′-yl)ethanol] was run?
**A.** Its Ki is < 500 nM.

**Q.** `CCN(C(=O)CN1CCC2(CC1)c1ccccc1CCN2CC)C(C)C` [Example 144, N-ethyl-2-(2-ethyl-3,4-dihydro-2H-spiro[isoquinoline-1,4′-piperidine]-1′-yl)-N-isopropylacetamide] was tested. Which Ki did it give?
**A.** Its Ki is < 500 nM.

**Q.** `CCN1CCc2ccccc2C12CCN(CC(=O)N1CCC(F)(F)CC1)CC2` [Example 145, 1-(4,4-difluoropiperidin-1-yl)-2-(2-ethyl-3,4-dihydro-2H-spiro[isoquinoline-1,4′-piperidine]-1′-yl)ethanone] was tested. Which Ki did it give?
**A.** Its Ki is < 500 nM.

**Q.** With `CCN1CCc2ccccc2C12CCN(CC(O)c1ccncc1)CC2` (stereo not drawn) [Example 146, 2-(2-ethyl-3,4-dihydro-2H-spiro[isoquinoline-1,4′-piperidine]-1′-yl)-1-(pyridin-4-yl)ethanol] as the molecule, how does the “μ and σ1 dual binding” value read?
**A.** Its value is “++”.

**Q.** For `CCN1CCc2ccccc2C12CCN(CC(=O)N1CCOCC1)CC2` [Example 147, 2-(2-ethyl-3,4-dihydro-2H-spiro[isoquinoline-1,4′-piperidine]-1′-yl)-1-morpholinoethanone], which Ki is on record?
**A.** The Ki was < 500 nM.

Same assay, conditions: combined class for Ki-μ ([3H]-DAMGO, CHO-K1 membranes) and Ki-σ1 ([3H](+)-pentazocine, HEK-293 membranes)

**Q.** For `CC(C)CN(C(=O)CN1CCC2(CC1)c1ccccc1CCN2C)C(C)C` [Example 110, N-isobutyl-N-isopropyl-2-(2-methyl-3,4-dihydro-2H-spiro[isoquinoline-1,4′-piperidine]-1′-yl)acetamide], which Ki is on record?
**A.** The Ki was ≥ 500 nM.

**Q.** For `C[C@@H]1CN(C(=O)CN2CCC3(CC2)c2ccccc2CCN3C)C[C@H](C)O1` [Example 115, 1-((2S,6R)-2,6-dimethylmorpholino)-2-(2-methyl-3,4-dihydro-2H-spiro[isoquinoline-1,4′-piperidine]-1′-yl)ethanone], which Ki is on record?
**A.** The Ki was ≥ 500 nM.

**Q.** `COCCN1CCc2ccccc2C12CCN(CCc1cccnc1)CC2` [Example 124, 2-(2-Methoxyethyl)-1′-(2-(pyridin-3-yl)ethyl)-3,4-dihydro-2H-spiro[isoquinoline-1,4′-piperidine]] was tested. Which Ki did it give?
**A.** Its Ki is ≥ 500 nM.

**Q.** Which Ki does the source give for `O=C(N1CCc2ccccc2C12CCN(CCc1ccccc1)CC2)C(F)(F)F` [Example 132, 2,2,2-Trifluoro-1-(1′-phenethyl-3,4-dihydro-2H-spiro[isoquinoline-1,4′-piperidine]-2-yl)ethanone] here?
**A.** The Ki was ≥ 500 nM.

**Q.** `CN1CC(C)(C)c2ccccc2C12CCN(CC(=O)N1CCCCC1)CC2` [Example 138, 1-(Piperidin-1-yl)-2-(2,4,4-trimethyl-3,4-dihydro-2H-spiro[isoquinoline-1,4′-piperidine]-1′-yl)ethanone] was tested. Which Ki did it give?
**A.** The Ki was ≥ 500 nM.
